Results taken from PubChem BioAssay (NCI).
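All cell lines were grown in 96-well plates and treated with compound for 48 hours. At the GI50, growth is halved. TGI: concentration producing complete growth inhibition.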

Assays:
Assay in all cases: NCI tumour cell line growth inhibition, 48 h
A549 NSCLC = tested on: A549 NSCLC
SK-MEL-5 melanoma = tested on: SK-MEL-5 melanoma
KM12 colon = tested on: KM12 colon
SK-MEL-28 melanoma = tested on: SK-MEL-28 melanoma
TK-10 renal = tested on: TK-10 renal
U251 CNS = tested on: U251 CNS
CAKI-1 renal = tested on: CAKI-1 renal
EKVX NSCLC = tested on: EKVX NSCLC
SN12C renal = tested on: SN12C renal
SNB-75 CNS = tested on: SNB-75 CNS
K-562 leukemia = tested on: K-562 leukemia
NCI-H226 lung = tested on: NCI-H226 lung
NCI-H23 lung = tested on: NCI-H23 lung
T-47D breast = tested on: T-47D breast
A498 renal = tested on: A498 renal
MDA-MB-435 = tested on: MDA-MB-435
MCF7 breast = tested on: MCF7 breast
CCRF-CEM leukemia = tested on: CCRF-CEM leukemia
MDA-MB-231 breast = tested on: MDA-MB-231 breast
HL-60(TB) leukemia = tested on: HL-60(TB) leukemia
OVCAR-8 ovarian = tested on: OVCAR-8 ovarian
RXF 393 renal = tested on: RXF 393 renal
SR leukemia = tested on: SR leukemia
SF-268 CNS = tested on: SF-268 CNS
HOP-62 NSCLC = tested on: HOP-62 NSCLC
SK-MEL-2 melanoma = tested on: SK-MEL-2 melanoma
SF-295 CNS = tested on: SF-295 CNS
UACC-62 melanoma = tested on: UACC-62 melanoma
HCT-15 colon = tested on: HCT-15 colon
MDA-MB-468 breast = tested on: MDA-MB-468 breast
OVCAR-3 ovarian = tested on: OVCAR-3 ovarian
ACHN renal = tested on: ACHN renal
786-0 renal = tested on: 786-0 renal
COLO 205 colon = tested on: COLO 205 colon
LOX IMVI melanoma = tested on: LOX IMVI melanoma
NCI/ADR-RES ovarian = tested on: NCI/ADR-RES ovarian
MALME-3M melanoma = tested on: MALME-3M melanoma
HCT-116 colon = tested on: HCT-116 colon
MOLT-4 leukemia = tested on: MOLT-4 leukemia
SF-539 CNS = tested on: SF-539 CNS
BT-549 breast = tested on: BT-549 breast
HS 578T breast = tested on: HS 578T breast
OVCAR-4 ovarian = tested on: OVCAR-4 ovarian
HCC-2998 colon = tested on: HCC-2998 colon
NCI-H522 lung = tested on: NCI-H522 lung
IGROV1 ovarian = tested on: IGROV1 ovarian
UO-31 renal = tested on: UO-31 renal
DU-145 prostate = tested on: DU-145 prostate
OVCAR-5 ovarian = tested on: OVCAR-5 ovarian
HOP-92 NSCLC = tested on: HOP-92 NSCLC
RPMI-8226 leukemia = tested on: RPMI-8226 leukemia
NCI-H460 lung = tested on: NCI-H460 lung
HT29 colon = tested on: HT29 colon
SNB-19 CNS = tested on: SNB-19 CNS
PC-3 prostate = tested on: PC-3 prostate
SK-OV-3 ovarian = tested on: SK-OV-3 ovarian
M14 melanoma = tested on: M14 melanoma
UACC-257 melanoma = tested on: UACC-257 melanoma
SW-620 colon = tested on: SW-620 colon

`Cc1ccc(-c2cc(C(=O)N=Nc3c(O)[nH]c4ccccc34)c3ccccc3n2)cc1` was tested, and the GI50 (A549 NSCLC) was 3.99 µM, the TGI (A549 NSCLC) was 22 µM and the GI50 (SK-MEL-5 melanoma) was 5.66 µM. For the same compound, the TGI (SK-MEL-5 melanoma) was 20 µM, the GI50 (KM12 colon) was 5.84 µM and the TGI (KM12 colon) was 73.4 µM. It also gave a GI50 (SK-MEL-28 melanoma) of 11.9 µM, a TGI (SK-MEL-28 melanoma) of 26.6 µM and a GI50 (TK-10 renal) of 20.6 µM. It also gave a TGI (TK-10 renal) of 40.9 µM, a GI50 (U251 CNS) of 3.02 µM and a TGI (U251 CNS) of 10.7 µM. The GI50 (CAKI-1 renal) was 4.56 µM, the TGI (CAKI-1 renal) was 21.5 µM and the GI50 (EKVX NSCLC) was 6.08 µM. The TGI (EKVX NSCLC) was 30.4 µM, the GI50 (SN12C renal) was 3.15 µM and the TGI (SN12C renal) was 14.5 µM. It also gave a GI50 (SNB-75 CNS) of 2.54 µM, a TGI (SNB-75 CNS) of 17.3 µM and a GI50 (K-562 leukemia) of 3.19 µM. For the same compound, the TGI (K-562 leukemia) was > 100 µM, the GI50 (NCI-H226 lung) was 10.6 µM and the TGI (NCI-H226 lung) was 28.6 µM. For the same compound, the GI50 (NCI-H23 lung) was 4.67 µM, the TGI (NCI-H23 lung) was 26.1 µM and the GI50 (T-47D breast) was 5.38 µM. For the same compound, the TGI (T-47D breast) was 47.3 µM, the GI50 (A498 renal) was 19.3 µM and the TGI (A498 renal) was 39.8 µM. It also gave a GI50 (MDA-MB-435) of 3 µM, a TGI (MDA-MB-435) of 11.5 µM and a GI50 (MCF7 breast) of 4.39 µM. The TGI (MCF7 breast) was 33.4 µM, the GI50 (CCRF-CEM leukemia) was 4.73 µM and the TGI (CCRF-CEM leukemia) was > 100 µM. For the same compound, the GI50 (MDA-MB-231 breast) was 2.39 µM, the TGI (MDA-MB-231 breast) was 6.41 µM and the GI50 (HL-60(TB) leukemia) was 6.54 µM. It also gave a TGI (HL-60(TB) leukemia) of 43.9 µM, a GI50 (OVCAR-8 ovarian) of 2.84 µM and a TGI (OVCAR-8 ovarian) of 9.15 µM. For the same compound, the GI50 (RXF 393 renal) was 1.88 µM, the TGI (RXF 393 renal) was 6.11 µM and the GI50 (SR leukemia) was 2.38 µM. The TGI (SR leukemia) was > 100 µM, the GI50 (SF-268 CNS) was 12.8 µM and the TGI (SF-268 CNS) was > 100 µM. The GI50 (HOP-62 NSCLC) was 13.5 µM, the TGI (HOP-62 NSCLC) was 29.1 µM and the GI50 (SK-MEL-2 melanoma) was 23.9 µM. For the same compound, the TGI (SK-MEL-2 melanoma) was 60.4 µM, the GI50 (SF-295 CNS) was 13.3 µM and the TGI (SF-295 CNS) was 28.5 µM. The GI50 (UACC-62 melanoma) was 12.7 µM, the TGI (UACC-62 melanoma) was 32.1 µM and the GI50 (HCT-15 colon) was 3.87 µM. For the same compound, the TGI (HCT-15 colon) was 17.9 µM, the GI50 (MDA-MB-468 breast) was 3.41 µM and the TGI (MDA-MB-468 breast) was 15.4 µM. It also gave a GI50 (OVCAR-3 ovarian) of 5.2 µM, a TGI (OVCAR-3 ovarian) of 25 µM and a GI50 (ACHN renal) of 10.3 µM. It also gave a TGI (ACHN renal) of 22.2 µM, a GI50 (786-0 renal) of 2.87 µM and a TGI (786-0 renal) of 9.8 µM. For the same compound, the GI50 (COLO 205 colon) was 15.4 µM, the TGI (COLO 205 colon) was 37.9 µM and the GI50 (LOX IMVI melanoma) was 3.63 µM. For the same compound, the TGI (LOX IMVI melanoma) was 15.8 µM, the GI50 (NCI/ADR-RES ovarian) was 2.24 µM and the TGI (NCI/ADR-RES ovarian) was 6.11 µM. The GI50 (MALME-3M melanoma) was 6.38 µM, the TGI (MALME-3M melanoma) was 21.1 µM and the GI50 (HCT-116 colon) was 1.97 µM. The TGI (HCT-116 colon) was 4.46 µM, the GI50 (MOLT-4 leukemia) was 4.23 µM and the TGI (MOLT-4 leukemia) was 38.5 µM. For the same compound, the GI50 (SF-539 CNS) was 3.27 µM, the TGI (SF-539 CNS) was 11.3 µM and the GI50 (BT-549 breast) was 3.09 µM. It also gave a TGI (BT-549 breast) of 18 µM, a GI50 (HS 578T breast) of 4.84 µM and a TGI (HS 578T breast) of 88.9 µM. The GI50 (OVCAR-4 ovarian) was 3.43 µM, the TGI (OVCAR-4 ovarian) was 26.6 µM and the GI50 (HCC-2998 colon) was 3.84 µM. It also gave a TGI (HCC-2998 colon) of 15.3 µM, a GI50 (NCI-H522 lung) of 9.85 µM and a TGI (NCI-H522 lung) of 25.6 µM. The GI50 (IGROV1 ovarian) was 5.89 µM, the TGI (IGROV1 ovarian) was 23.1 µM and the GI50 (UO-31 renal) was 10.7 µM. For the same compound, the TGI (UO-31 renal) was 22.6 µM, the GI50 (DU-145 prostate) was 5.48 µM and the TGI (DU-145 prostate) was 37.6 µM. It also gave a GI50 (OVCAR-5 ovarian) of 8.67 µM, a TGI (OVCAR-5 ovarian) of 26.7 µM and a GI50 (HOP-92 NSCLC) of 11.2 µM. For the same compound, the TGI (HOP-92 NSCLC) was 36.4 µM, the GI50 (RPMI-8226 leukemia) was 5.34 µM and the TGI (RPMI-8226 leukemia) was > 100 µM. The GI50 (NCI-H460 lung) was 2.87 µM, the TGI (NCI-H460 lung) was 8.25 µM and the GI50 (HT29 colon) was 7.14 µM. For the same compound, the TGI (HT29 colon) was 25.8 µM, the GI50 (SNB-19 CNS) was 10.6 µM and the TGI (SNB-19 CNS) was 48.5 µM. The GI50 (PC-3 prostate) was 17.2 µM, the TGI (PC-3 prostate) was > 100 µM and the GI50 (SK-OV-3 ovarian) was 18.1 µM. The TGI (SK-OV-3 ovarian) was 36.4 µM, the GI50 (M14 melanoma) was 7.76 µM and the TGI (M14 melanoma) was 27.8 µM. For the same compound, the GI50 (UACC-257 melanoma) was 14.3 µM, the TGI (UACC-257 melanoma) was 32.2 µM and the GI50 (SW-620 colon) was 6.07 µM. The TGI (SW-620 colon) was 34 µM.
